≈ marks a conversion by molar mass, not a printed value. Like-named read-outs stand apart in the source and are kept apart here.
Experiments:
[1] = test system: M. marburgensis; test: microbe, parasite or virus in culture; type: cell-based; details: for MIC: read-out: Inhibition of Growth M. marburgensis: concentration of compound which completely inhibited growth; for inhibition of growth of Methanothermobacter marburgensis (figure legend): FIG. 4: 1000 μM A2, 300 μM and 500 μM A4
[2] = target: T1, RFA-P synthase (Archaeoglobus fulgidus, UniProt O28190); test: biochemical; type: biochemical
T1 sequence (O28190 1-313): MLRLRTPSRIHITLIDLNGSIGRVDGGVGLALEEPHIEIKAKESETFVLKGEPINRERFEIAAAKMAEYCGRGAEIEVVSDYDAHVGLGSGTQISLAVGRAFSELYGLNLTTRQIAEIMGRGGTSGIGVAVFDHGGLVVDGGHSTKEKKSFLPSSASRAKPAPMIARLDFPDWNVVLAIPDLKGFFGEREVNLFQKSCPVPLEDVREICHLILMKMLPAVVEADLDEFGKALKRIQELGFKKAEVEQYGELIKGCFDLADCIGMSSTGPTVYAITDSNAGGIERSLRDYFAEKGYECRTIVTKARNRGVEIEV

[3] = test system: M. marburgensis; type: cell-based
[4] = test system: Moorella thermoacetica; test: Inhibition of growth of acetogen Moorella thermoacetica; type: cell-based; details: FIG. 5
[5] = test system: ruminal organisms; test: Ruminal fluid batch culture (artificial rumen): growth inhibition / methane formation; type: cell-based, steers
[6] = Methanothermobacter marburgensis
[7] = inhibition constant, substrates at saturating concentrations, first tested at 1 mM, competitive inhibition fit, read-out: Ki
[8] = Methanothermobacter marburgensis, H2/CO2-grown, 65° C., OD 580 nm, words refer to 1 millimolar
[9] = total methane over 48 hours, compound at (100), 600 micromoles without inhibitor

SMILES	Ki [2, 7] [µM]	MIC [1, 8] [µM]	further results
CC(C)Nc1ccc(P(=O)(O)OC(C)C)cc1 [Compound A50]	–	–	MIC [1, 6]: 100 µM (≈ 25.7 µg/mL)
O=C(O)c1c[nH]cn1 [Compound D3]	–	–	MIC [1, 6]: 1000 µM (≈ 112 µg/mL)
O=C(O)[C@H]1CC[C@@H](NCc2ccco2)CC1 [Compound B1]	63	0.1 (≈ 0.0223 µg/mL)	–
O=C(O)c1ccc(NCCO)cc1 [Compound A5]	17	300 (≈ 54.4 µg/mL)	–
Nc1nc(CC(=O)O)cs1 [Compound D6]	–	500 (≈ 79.1 µg/mL)	–
CCCCOP(=O)(O)c1ccc(NCc2ccccn2)cc1 [Compound A55]	–	–	Ki [2]: 25 µM; MIC [1, 6]: 100 µM (≈ 32 µg/mL)
OCc1ccc([C@@H]2N[C@H](CO)[C@@H](O)[C@H]2O)cc1 [Compound C4]	–	1000 (≈ 239 µg/mL)	–
O=C(O)c1ccc(NCc2ccccn2)cc1 [Compound A33]	19	0.1 (≈ 0.0228 µg/mL)	Methane Produced ([3]; total methane over 48 hours, compound at (0.1), 600 micromoles without inhibitor): 0.08 μ moles
CCOC(=O)c1ccc(NC(C)C)cc1 [Compound A11]	130	1000 (≈ 207 µg/mL)	–
CC(C)Nc1ccc(C(=O)O)cc1 [4-(isopropylamino)benzoic acid]	–	–	inhibition of RFA-P synthase (figure legend) [2]: inhibition of RFA-P synthase; inhibition of methanogen growth (figure legend) ([1]; FIG. 7A: M. marburgensis, 15, 25, 75 and 90 micromoles of compound, OD 580 nm): inhibition of methanogen growth
CC(C)OP(=O)(O)c1ccc(NCc2cccnc2)cc1 [Compound A52]	–	–	MIC [1, 6]: 1000 µM (≈ 306 µg/mL)
Cc1cc(C(=O)O)ccc1NC(C)C [Compound A16]	23	300 (≈ 58 µg/mL)	–
CC(C)OP(=O)(O)c1ccc(N)cc1 [Compound A13]	–	–	Ki [2]: 15 µM; MIC [1, 6]: 1000 µM (≈ 215 µg/mL)
CCCCCCNc1ccc(C(=O)O)cc1 [Compound A21]	–	500 (≈ 111 µg/mL)	–
O=C(O)c1ccc(NCc2ccsc2)cc1 [Compound A28]	55	1000 (≈ 233 µg/mL)	–
CCOP(=O)(O)c1ccc(N)cc1 [Compound A48]	–	–	Ki [2]: 65 µM
NCc1ccc(C(=O)O)cc1 [Compound A7, 4-(aminomethyl)benzoic acid]	75	–	inhibition of RFA-P synthase (figure legend) [2]: inhibit RFA-P synthase; Methane Produced [3]: 0.07 μ moles
CC(C)CNc1ccc(C(=O)O)cc1 [Compound A4]	10	500 (≈ 96.6 µg/mL)	inhibition of RFA-P synthase (figure legend) [2]: inhibit RFA-P synthase; Methane Produced ([3]; total methane over 48 hours, compound at (500), 600 micromoles without inhibitor): 0.02 μ moles; inhibition of growth of Methanothermobacter marburgensis (figure legend) [1]: inhibit growth; inhibition of growth of Moorella thermoacetica (figure legend) [4]: inability
O=C(O)c1ccc(NC2CCCC2)cc1 [Compound A25]	–	1000 (≈ 205 µg/mL)	–
O=C(O)c1ccc(CO)cc1 [Compound A40]	270	–	–
CCC(C(=O)O)c1ccc(N)cc1 (centres unmarked) [Compound A41]	–	500 (≈ 89.6 µg/mL)	–
NCc1ccc(B(O)O)cc1 [Compound A2]	140	–	inhibition of growth of Methanothermobacter marburgensis (figure legend) [1]: inhibit growth; inhibition of growth of Moorella thermoacetica (figure legend) [4]: inability

SMILES	Ki [2, 7] [µM]	MIC [1, 8] [µM]	further results
Nc1ccc(C(=O)O)cc1O [Compound A38]	–	500 (≈ 76.6 µg/mL)	–
Nc1ccc(S(=O)(=O)O)cc1 [Compound A12]	7	–	–
Nc1ccc(/C=C/C(=O)O)cc1 [Compound A80]	–	500 (≈ 81.6 µg/mL)	–
CCOP(=O)(OCC)c1ccc(NCC(C)C)cc1 [Compound A47]	–	–	MIC [1]: 500 µM (≈ 143 µg/mL)
N[C@H]1CC[C@H](C(=O)O)CC1 [Compound B7]	–	500 (≈ 71.6 µg/mL)	–
O=C(O)[C@H]1CC[C@H](NCc2ccco2)CC1 [Compound B2]	–	500 (≈ 112 µg/mL)	–
O=C(O)c1ccc(NCc2ccccn2)cc1 [4-[(2-pyridylmethyl)amino]benzoic acid]	–	–	concentration that completely arrests growth of and methane formation by M. marburgensis [1]: 100 mM; reversal of inhibition by supplementing the medium with pABA ([1]; M. marburgensis): fully reversed
CCCCNc1ccc(C(=O)O)cc1 [Compound A58]	–	–	MIC [1, 6]: 1000 µM (≈ 193 µg/mL)
OCc1ccc(B(O)O)cc1 [Compound A15]	9	–	MIC [1, 6]: 100 µM (≈ 15.2 µg/mL)
Cc1cccc(CNc2ccc(C(=O)O)cc2)n1 [Compound A34]	19	–	–
CCNc1ccc(C(=O)O)cc1 [4-(ethylamino)benzoate]	–	–	methane production, % of the control level [5]: 2.5%
O=C(O)c1ccc(NCc2ccc(O)cc2)cc1 [Compound A32]	–	300 (≈ 73 µg/mL)	–
O=C(O)Cc1ccc(NCc2ccco2)cc1 [Compound A42]	–	1000 (≈ 231 µg/mL)	–
O=C(O)c1ccc(NCc2ccc3ccccc3n2)cc1 [Compound A35]	–	1000 (≈ 278 µg/mL)	–
O=P(O)(O)OC[C@H]1N[C@@H](c2ccccc2)[C@H](O)[C@@H]1O [Compound C1]	30	500 (≈ 145 µg/mL)	–
CCCCOP(=O)(O)c1ccc(N)cc1 [Compound A14]	–	–	Ki [2]: 25 µM
Nc1cc(C(=O)O)ccn1 [Compound A39]	–	1000 (≈ 138 µg/mL)	–
CCCNc1ccc(C(=O)O)cc1 [Compound A20]	20	600 (≈ 108 µg/mL)	inhibition of RFA-P synthase (figure legend) [2]: inhibit RFA-P synthase; Methane Produced ([3]; total methane over 48 hours, compound at (600), 600 micromoles without inhibitor): 0.05 μ moles
O=C(O)c1ccc(NCc2ccco2)cc1 [Compound A6]	7.5	300 (≈ 65.2 µg/mL)	–
CCCCOP(=O)(O)c1ccc(NC(C)C)cc1 [Compound A53]	–	–	Ki [2]: 25 µM; MIC [1, 6]: 300 µM (≈ 81.4 µg/mL)
O=C(O)c1ccc(NCc2ccccc2)cc1 [Compound A29]	51	500 (≈ 114 µg/mL)	–
CC(C)Nc1ccc(C(=O)O)cc1 [Compound A3]	9	100 (≈ 17.9 µg/mL)	Methane Produced [3, 9]: 0.01 μ moles

SMILES	Ki [2, 7] [µM]	MIC [1, 8] [µM]	further results
O=C(O)c1ccc(NCCO)cc1 [4-(2-hydroxyethylamino)benzoate]	–	–	methane production, % of the control level ([5]; artificial rumen, 9 mM compound): 2.5%
Nc1n[nH]c(C(=O)O)n1 [Compound D7]	–	1000 (≈ 128 µg/mL)	–
CCNc1ccc(C(=O)O)cc1 [Compound A19]	–	–	Ki [2]: 155 µM; MIC [1, 6]: 300 µM (≈ 49.6 µg/mL)
Nc1ccc(P(=O)(O)O)cc1 [Compound A49]	–	–	Ki [2]: 85 µM
CCCOC(=O)c1ccc(NC(C)C)cc1 [Compound A65]	130	–	–
CC(C)CCNc1ccc(C(=O)O)cc1 [Compound A24]	–	1000 (≈ 207 µg/mL)	–
Nc1ccc(CC(=O)O)cc1 [Compound A9, (4-aminophenyl)acetic acid]	60	–	MIC [1, 6]: 1000 µM (≈ 151 µg/mL)
CC(C)OP(=O)(O)c1ccc(NCc2ccco2)cc1 [Compound A51]	–	–	MIC [1, 6]: 100 µM (≈ 29.5 µg/mL)
O=C(O)c1ccc(NCc2cccs2)cc1 [Compound A27]	72	–	–
O=C(O)c1ccc(NCc2ccccc2O)cc1 [Compound A31]	705	1000 (≈ 243 µg/mL)	–
OB(O)c1ccncc1 [Compound A74]	200	–	–
CCCCOC(=O)c1ccc(NC(C)C)cc1 [Compound A66]	190	1000 (≈ 235 µg/mL)	–
O=C(O)c1ccc(NCc2ccncc2)cc1 [Compound A36]	–	1000 (≈ 228 µg/mL)	–
CNc1ccc(C(=O)O)cc1 [Compound A56]	145	–	–
CC(Nc1ccc(C(=O)O)cc1)C(F)(F)F (centres unmarked) [Compound A22]	59	–	–
O=C(O)c1ccc(NCc2ccoc2)cc1 [Compound A26]	84	100 (≈ 21.7 µg/mL)	Methane Produced [3, 9]: 0.06 μ moles
O=C(O)Cc1ccc(O)cc1 [Compound A44]	–	–	Ki [2]: 115 µM
O=C(O)c1ccc(NCc2c(F)c(F)c(F)c(F)c2F)cc1 [Compound A30]	–	500 (≈ 159 µg/mL)	–
Cc1cc(S(=O)(=O)O)ccc1N [Compound A45]	–	–	MIC [1, 6]: 500 µM (≈ 93.6 µg/mL)
Nc1cccc(CC(=O)O)c1 [Compound A43]	–	500 (≈ 75.6 µg/mL)	–
CC(C)CN[C@H]1CC[C@@H](C(=O)O)CC1 [Compound B3]	44	–	–

Reference: patent US20030219467A1, “Method for the inhibition of methanogensis” (The Board of Regents of the University of Nebraska, priority 2001, published 2003)
